Data reported in ChEMBL document CHEMBL3621068, “Synthesis and biological evaluation of a new class of quinazolinoneazoles as potential antimicrobial agents and their interactions with calf thymus DNA and human serum albumin” (Medchemcomm, 2015).
Values after ≈ are worked out from the molar mass of the structure shown.

Assays:
Type in all cases: functional
[1] = tested on: Cyberlindnera jadinii; assay: Antifungal activity against Candida utilis ATCC 9950 after 24 hrs by micro broth dilution assay; settings: Williopsis jadinii, ATCC 9950, 24 h
[2] = tested on: Candida albicans; assay: Antifungal activity against Candida albicans ATCC 10231 after 24 hrs by micro broth dilution assay; settings: ATCC 10231, 24 h
[3] = tested on: Aspergillus flavus; assay: Antifungal activity against Aspergillus flavus ATCC 204304 after 24 hrs by micro broth dilution assay; settings: ATCC 204304, 24 h
[4] = tested on: Escherichia coli; assay: Antibacterial activity against Escherichia coli DH52 after 24 hrs by micro broth dilution assay; settings: DH52, 24 h
[5] = tested on: Staphylococcus aureus; assay: Antibacterial activity against Staphylococcus aureus ATCC 25923 after 24 hrs by micro broth dilution assay; settings: ATCC 25923, 24 h
[6] = tested on: Pseudomonas aeruginosa; assay: Antibacterial activity against Pseudomonas aeruginosa ATCC 27853 a after 24 hrs by micro broth dilution assay; settings: ATCC 27853, 24 h
[7] = tested on: Bacillus spizizenii; assay: Antibacterial activity against Bacillus subtilis ATCC 6633 after 24 hrs by micro broth dilution assay; settings: ATCC 6633, 24 h
[8] = tested on: Bacillus sp.; assay: Antibacterial activity against Bacillus proteus ATCC 13315 after 24 hrs by micro broth dilution assay; settings: Bacillus sp. (in: firmicutes), ATCC 13315, 24 h
[9] = tested on: Micrococcus luteus; assay: Antibacterial activity against Micrococcus luteus ATCC 4698 after 24 hrs by micro broth dilution assay; settings: ATCC 4698, 24 h
[10] = tested on: Saccharomyces cerevisiae; assay: Antifungal activity against Beer yeast ATCC 9763 after 24 hrs by micro broth dilution assay; settings: ATCC 9763, 24 h
[11] = Antibacterial activity against Eberthella typhosa ATCC 14028 after 24 hrs by micro broth dilution assay; settings: ATCC 14028, 24 h
[12] = tested on: Candida; assay: Antifungal activity against Candida mycoderma ATCC 9888 after 24 hrs by micro broth dilution assay; settings: ATCC 9888, 24 h
[13] = tested on: Staphylococcus aureus; assay: Antibacterial activity against methicillin-resistant Staphylococcus aureus N315 after 24 hrs by micro broth dilution assay; settings: N315, 24 h

SMILES | MIC [1] [µM] | MIC [2] [µM] | MIC [3] [µM] | MIC [4] [µM] | MIC [5] [µM] | MIC [6] [µM] | MIC [7] [µM] | MIC [8] [µM] | MIC [9] [µM] | MIC [10] [µM] | MIC [11] [µM] | MIC [12] [µM] | MIC [13] [µM]
Cc1ncc([N+](=O)[O-])n1CCCCCCCCCCn1cnc2cc(Cl)ccc2c1=O | 20 (≈ 8.92 µg/mL) | 20 (≈ 8.92 µg/mL) | 20 (≈ 8.92 µg/mL) | 20 (≈ 8.92 µg/mL) | 20 (≈ 8.92 µg/mL) | > 1150 | 20 (≈ 8.92 µg/mL) | 20 (≈ 8.92 µg/mL) | 20 (≈ 8.92 µg/mL) | 40 (≈ 17.8 µg/mL) | 20 (≈ 8.92 µg/mL) | 40 (≈ 17.8 µg/mL) | 40 (≈ 17.8 µg/mL)
Cc1ncc([N+](=O)[O-])n1CCCCn1cnc2cc(F)ccc2c1=O | 50 (≈ 17.3 µg/mL) | 20 (≈ 6.91 µg/mL) | 20 (≈ 6.91 µg/mL) | 50 (≈ 17.3 µg/mL) | 50 (≈ 17.3 µg/mL) | > 1480 | 50 (≈ 17.3 µg/mL) | 20 (≈ 6.91 µg/mL) | 50 (≈ 17.3 µg/mL) | 50 (≈ 17.3 µg/mL) | 20 (≈ 6.91 µg/mL) | 50 (≈ 17.3 µg/mL) | 20 (≈ 6.91 µg/mL)
O=c1c2ccc(Cl)cc2ncn1CCCCCCCCCCBr | 320 (≈ 128 µg/mL) | > 1280 | > 1280 | 640 (≈ 256 µg/mL) | > 1280 | > 1280 | 1280 (≈ 512 µg/mL) | 320 (≈ 128 µg/mL) | 320 (≈ 128 µg/mL) | 640 (≈ 256 µg/mL) | > 1280 | > 1280 | 640 (≈ 256 µg/mL)
Cc1ncc([N+](=O)[O-])n1CCCCCCn1cnc2cc(Cl)ccc2c1=O | 20 (≈ 7.8 µg/mL) | 20 (≈ 7.8 µg/mL) | 40 (≈ 15.6 µg/mL) | 40 (≈ 15.6 µg/mL) | 20 (≈ 7.8 µg/mL) | > 1310 | 40 (≈ 15.6 µg/mL) | 20 (≈ 7.8 µg/mL) | 40 (≈ 15.6 µg/mL) | 20 (≈ 7.8 µg/mL) | 20 (≈ 7.8 µg/mL) | 20 (≈ 7.8 µg/mL) | 20 (≈ 7.8 µg/mL)
O=c1c2ccc(F)cc2ncn1CCn1cnc([N+](=O)[O-])c1 | 420 (≈ 127 µg/mL) | 50 (≈ 15.2 µg/mL) | > 1690 | 840 (≈ 255 µg/mL) | 840 (≈ 255 µg/mL) | > 1690 | 50 (≈ 15.2 µg/mL) | 420 (≈ 127 µg/mL) | 50 (≈ 15.2 µg/mL) | 210 (≈ 63.7 µg/mL) | 420 (≈ 127 µg/mL) | 840 (≈ 255 µg/mL) | 210 (≈ 63.7 µg/mL)
O=c1c2ccc(F)cc2ncn1CCCCCCCCCCBr | 330 (≈ 126 µg/mL) | 670 (≈ 257 µg/mL) | 1340 (≈ 514 µg/mL) | 1340 (≈ 514 µg/mL) | > 1340 | > 1340 | 1340 (≈ 514 µg/mL) | 330 (≈ 126 µg/mL) | 670 (≈ 257 µg/mL) | 670 (≈ 257 µg/mL) | > 1340 | > 1340 | 330 (≈ 126 µg/mL)
O=c1c2ccc(F)cc2ncn1CCn1ccnc1 | 990 (≈ 256 µg/mL) | 990 (≈ 256 µg/mL) | 500 (≈ 129 µg/mL) | 1980 (≈ 511 µg/mL) | > 1980 | 990 (≈ 256 µg/mL) | > 1980 | 1980 (≈ 511 µg/mL) | 500 (≈ 129 µg/mL) | 500 (≈ 129 µg/mL) | > 1980 | > 1980 | 990 (≈ 256 µg/mL)
OC(Cn1cncn1)(Cn1cncn1)c1ccc(F)cc1F [FLUCONAZOLE] | 30 (≈ 9.19 µg/mL) | < 10 | 840 (≈ 257 µg/mL) | > 1670 | > 1670 | > 1670 | > 1670 | > 1670 | > 1670 | 50 (≈ 15.3 µg/mL) | > 1670 | 10 (≈ 3.06 µg/mL) | > 1670
O=c1c2ccc(F)cc2ncn1CCBr | 940 (≈ 255 µg/mL) | 940 (≈ 255 µg/mL) | 1890 (≈ 512 µg/mL) | 1890 (≈ 512 µg/mL) | > 1890 | > 1890 | 1890 (≈ 512 µg/mL) | 470 (≈ 127 µg/mL) | 470 (≈ 127 µg/mL) | 940 (≈ 255 µg/mL) | > 1890 | > 1890 | 940 (≈ 255 µg/mL)
CCn1cc(C(=O)O)c(=O)c2cc(F)c(N3CCNCC3)cc21 [NORFLOXACIN] | > 1600 | > 1600 | > 1600 | 50 (≈ 16 µg/mL) | 10 (≈ 3.19 µg/mL) | 10 (≈ 3.19 µg/mL) | 10 (≈ 3.19 µg/mL) | 10 (≈ 3.19 µg/mL) | 10 (≈ 3.19 µg/mL) | > 1600 | 10 (≈ 3.19 µg/mL) | > 1600 | 30 (≈ 9.58 µg/mL)
O=c1c2ccc(Cl)cc2ncn1CCn1cnc([N+](=O)[O-])c1 | 400 (≈ 128 µg/mL) | 100 (≈ 32 µg/mL) | > 1600 | 800 (≈ 256 µg/mL) | 800 (≈ 256 µg/mL) | > 1600 | 50 (≈ 16 µg/mL) | 400 (≈ 128 µg/mL) | 50 (≈ 16 µg/mL) | 200 (≈ 63.9 µg/mL) | 400 (≈ 128 µg/mL) | 800 (≈ 256 µg/mL) | 200 (≈ 63.9 µg/mL)
O=c1c2ccc(F)cc2ncn1CCCCn1cnc([N+](=O)[O-])c1 | 390 (≈ 129 µg/mL) | 100 (≈ 33.1 µg/mL) | 770 (≈ 255 µg/mL) | 770 (≈ 255 µg/mL) | 390 (≈ 129 µg/mL) | 770 (≈ 255 µg/mL) | 50 (≈ 16.6 µg/mL) | 390 (≈ 129 µg/mL) | 50 (≈ 16.6 µg/mL) | 100 (≈ 33.1 µg/mL) | 390 (≈ 129 µg/mL) | 770 (≈ 255 µg/mL) | 190 (≈ 62.9 µg/mL)
